The structures appear in SMILES notation.

T1 sequence (P14780 whole entry): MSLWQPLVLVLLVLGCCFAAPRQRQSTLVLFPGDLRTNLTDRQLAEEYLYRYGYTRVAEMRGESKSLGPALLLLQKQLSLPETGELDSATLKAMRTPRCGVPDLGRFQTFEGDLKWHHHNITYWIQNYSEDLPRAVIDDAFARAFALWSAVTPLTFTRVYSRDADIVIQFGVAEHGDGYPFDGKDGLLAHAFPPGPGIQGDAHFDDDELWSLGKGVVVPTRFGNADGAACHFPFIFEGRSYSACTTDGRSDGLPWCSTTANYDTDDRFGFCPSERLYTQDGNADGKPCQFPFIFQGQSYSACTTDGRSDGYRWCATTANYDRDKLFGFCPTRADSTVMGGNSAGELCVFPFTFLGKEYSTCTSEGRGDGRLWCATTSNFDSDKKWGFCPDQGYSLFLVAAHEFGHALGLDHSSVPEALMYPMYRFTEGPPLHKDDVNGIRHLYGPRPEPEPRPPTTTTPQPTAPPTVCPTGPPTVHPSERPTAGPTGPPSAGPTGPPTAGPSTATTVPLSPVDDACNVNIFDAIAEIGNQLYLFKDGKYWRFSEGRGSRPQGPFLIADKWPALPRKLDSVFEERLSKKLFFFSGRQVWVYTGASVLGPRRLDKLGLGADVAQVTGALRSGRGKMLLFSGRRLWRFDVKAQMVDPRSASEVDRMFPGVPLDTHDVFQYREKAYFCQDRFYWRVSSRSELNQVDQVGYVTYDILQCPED

One experiment has as its target T1, Matrix metalloproteinase-9 (Homo sapiens, UniProt P14780). The experiment in a line: Inhibition constant for human matrix metalloprotease-9 (MMP-9).
Conditions: not given
The molecule `CCOP(=O)(c1ccc(C)cc1)N1Cc2ccccc2C[C@@H]1C(=O)NO` (stereo partly drawn) displayed a Ki of 41.8 nM.

As for `CCOP(=O)(c1ccc(OC)cc1)N1Cc2ccccc2C[C@H]1C(=O)NO` (stereo partly drawn), the Ki worked out at 349 nM.

`CCOP(=O)(c1ccccc1)N1Cc2ccccc2C[C@@H]1C(=O)NO` (stereo partly drawn) displayed a Ki of 42.7 nM.

With `CCOP(=O)(c1ccc(OC)cc1)N1Cc2ccccc2C[C@@H]1C(=O)NO` (stereo partly drawn), the Ki worked out at 5.05 nM.

`CCOP(=O)(c1ccc(F)cc1)N1Cc2ccccc2C[C@@H]1C(=O)NO` (stereo partly drawn) registered a Ki of 51.9 nM.

For the next experiment, the target named is T1, Matrix metalloproteinase-9. The experiment in a line: Inhibition of MOCAc-Pro-Leu-Gly-Leu-A2p (Dnp)-Ala-Arg-NH2 binding to human matrix metalloprotease-9 (MMP-9). The settings on record: read-out: Log 1/Ki (converted).
As for `CCOP(=O)(c1ccc(OC)cc1)N1Cc2cc(N)ccc2C[C@@H]1C(=O)NO` (stereo partly drawn), the Ki is 11 nM.

For the molecule `CCOP(=O)(c1ccc(C)cc1)N1Cc2ccccc2C[C@@H]1C(=O)NO` (stereo partly drawn), the Ki is 41.8 nM.

For `CCOP(=O)(c1ccc(N)cc1)N1Cc2ccccc2C[C@@H]1C(=O)NO` (stereo partly drawn), the Ki was 95.5 nM.

Turning to `CCOP(=O)(c1ccc(Oc2ccccc2)cc1)N1Cc2ccccc2C[C@@H]1C(=O)NO` (stereo partly drawn), the Ki was 0.0794 nM.

On to `CCOP(=O)(CCc1ccccc1)N1Cc2ccccc2C[C@@H]1C(=O)NO` (stereo partly drawn), for which the Ki is 38.3 nM.

For `CCOP(=O)(c1ccc(Oc2ccncc2)cc1)N1Cc2ccccc2C[C@@H]1C(=O)NO` (stereo partly drawn), the Ki was 0.6 nM.

`CCOP(=O)(c1ccc(OC)cc1)N1Cc2ccccc2C[C@H]1C(=O)NO` (stereo partly drawn): the Ki is 349 nM.

As to `CCOP(=O)(c1ccc(Oc2ccc(N)cc2)cc1)N1Cc2ccccc2C[C@@H]1C(=O)NO` (stereo partly drawn), the Ki was 0.1 nM.

For `CCOP(=O)(c1ccc(OC)cc1)N1CCC[C@@H]1C(=O)NO` (stereo partly drawn), the Ki was 316 nM.

For the molecule `CCOP(=O)(c1ccc(OC)cc1)N1CC2Nc3ccccc3C2C[C@@H]1C(=O)NO` (stereo partly drawn), the Ki is 1.13 nM.

Regarding `COc1ccc(P(=O)(OCCc2ccc(-c3ccccc3)cc2)N2Cc3ccccc3C[C@@H]2C(=O)NO)cc1` (stereo partly drawn), the Ki is 6.47 nM.

Take `CCOP(=O)(c1ccccc1)N1Cc2ccccc2C[C@@H]1C(=O)NO` (stereo partly drawn): the Ki is 42.7 nM.

As for `CCN(CC)CCOP(=O)(c1ccc(OC)cc1)N1Cc2ccccc2C[C@@H]1C(=O)NO` (stereo partly drawn), the Ki is 16.7 nM.

As to `COc1ccc(P(=O)(OCC2CCCCC2)N2Cc3ccccc3C[C@@H]2C(=O)NO)cc1` (stereo partly drawn), the Ki was 4.56 nM.

On to `COc1ccc(P(=O)(OCCc2ccccn2)N2Cc3ccccc3C[C@@H]2C(=O)NO)cc1` (stereo partly drawn), for which the Ki was 3.42 nM.

Turning to `CCOCCOc1ccc(P(=O)(OCC)N2Cc3ccccc3C[C@@H]2C(=O)NO)cc1` (stereo partly drawn), the Ki was 14.2 nM.

On to `COc1ccc(P(=O)(OC)N2Cc3ccccc3C[C@@H]2C(=O)NO)cc1` (stereo partly drawn), for which the Ki is 2.03 nM.

On to `CCOP(=O)(c1cccc(F)c1)N1Cc2ccccc2C[C@@H]1C(=O)NO` (stereo partly drawn), for which the Ki was 80.2 nM.

In the case of `CCOP(=O)(c1ccc(OC)cc1)N1Cc2ccccc2C[C@@H]1C(=O)NO` (stereo partly drawn), the Ki was 5.05 nM.

For the molecule `CCOP(=O)(c1ccc(F)cc1)N1Cc2ccccc2C[C@@H]1C(=O)NO` (stereo partly drawn), the Ki is 51.9 nM.

In the case of `CCOP(=O)(c1cccs1)N1Cc2ccccc2C[C@@H]1C(=O)NO` (stereo partly drawn), the Ki is 59.2 nM.

As for `CCOP(=O)(c1ccccc1F)N1Cc2ccccc2C[C@@H]1C(=O)NO` (stereo partly drawn), the Ki is 32.1 nM.

`CCOP(=O)(c1ccc(OC)cc1)N1CCN(C(=O)OCc2ccccc2)C[C@@H]1C(=O)NO` (stereo partly drawn): the Ki is 5.2 nM.

As for `CCOCCOP(=O)(c1ccc(OC)cc1)N1Cc2ccccc2C[C@@H]1C(=O)NO` (stereo partly drawn), the Ki is 6.35 nM.

For the molecule `CCOP(=O)(c1ccncc1)N1Cc2ccccc2C[C@@H]1C(=O)NO` (stereo partly drawn), the Ki is 278 nM.

For the molecule `COc1ccc(P(=O)(OC2CCCCC2)N2Cc3ccccc3C[C@@H]2C(=O)NO)cc1` (stereo partly drawn), the Ki is 6.58 nM.

Turning to `CCOP(=O)(c1ccc(-c2ccccc2)cc1)N1Cc2ccccc2C[C@@H]1C(=O)NO` (stereo partly drawn), the Ki is 0.31 nM.

On to `CCOP(=O)(c1ccc(OC)cc1)N1Cc2ccsc2C[C@@H]1C(=O)NO` (stereo partly drawn), for which the Ki is 3.8 nM.

For the origin of these results see ChEMBL document CHEMBL1141157, “A combination of docking, QM/MM methods, and MD simulation for binding affinity estimation of metalloprotein ligands” (J Med Chem, 2005).
